Values quoted from earlier work as cited in patent US20250019557A1, “INK SET AND INKJET RECORDING APPARATUS” (KYOCERA Document Solutions Inc., priority 2023, published 2025).

Conditions: octanol/water partition coefficient; literature value, or calculated where none exists

| Structure (SMILES) | LogP |
| --- | --- |
| CC(O)CO (stereo not shown) [1,2-Propanediol] | −0.92 |
| OCCCO [1,3-Propanediol] | −1.04 |
| CC(CCO)CCO [3-Methyl-1,5-pentanediol] | 0.35 |
| CCCCOCCOCCOCCO [Triethylene glycol monobutyl ether] | 0.44 |
